In patent US20190075787A1, “COMPOSITIONS AND METHODS FOR CROP DEFENSE” (AdvanSix Resins & Chemicals LLC, priority 2017, published 2019):

Experiments:
[1] = general statement, no test described; cited from earlier work
[2] = general statement, no test described; cited from earlier work; remark: listed apart in the source
[3] = Fungicide comparative solubility: tebuconazole dissolved in each solvent; assay type: physicochemical; conditions: room temperature; vials of 20, 30, 40 and 50 wt. % tebuconazole
Description: (§1) The solubility of the herbicide saflufenacil was determined for thirteen solvents. Three of the solvents were caprolactam-derived solvents in accordance with this disclosure. The remaining ten were comparative solvents. The solubility of saflufenacil was evaluated for each solvent by preparing four, 2 ml vials containing 20 wt. %, 30 wt. %, 40 wt. % and 50 wt. % of saflufenacil. To prepare the 20 wt. % vial, 0.040 g of saflufenacil was added to 0.160 ml of solvent. To prepare the 30 wt. % vial, 0.060 g of saflufenacil was added to 0.140 ml of solvent. To prepare the 40 wt. % vial, […] of saflufenacil was added to 0.120 ml of solvent. To prepare the 50 wt. % vial, 0.100 g of saflufenacil was added to 0.100 ml of solvent. The vials were capped and swirled at room temperature until no change in solubility was observed. Test samples including the fungicide tebuconazole were prepared as described above for Example 1 for saflufenacil. […] As in Table 1 above, solvents 1-3 are in accordance with the present disclosure and solvents 4-13 are comparative solvents.

[4] = Insecticide comparative solubility: bifenthrin dissolved in each solvent; assay type: physicochemical; conditions: room temperature; vials of 20, 30, 40 and 50 wt. % bifenthrin
[5] = Herbicide comparative solubility: saflufenacil dissolved in each solvent; assay type: physicochemical; conditions: room temperature; vials of 20, 30, 40 and 50 wt. % saflufenacil
Description: as §1, with “observed.” for “observed. Test samples including the fungicide tebuconazole were prepared as described above for Example 1 for saflufenacil.”, “Solvents” for “As in Table 1 above, solvents”, “disclosure. Solvents” for “disclosure and solvents”

[6] = Hansen Solubility Parameters of solvents; assay type: physicochemical
Text: As is known in the art, Hansen Solubility Parameters can be used to predict the effectiveness of a solvent. […] Thus, one skilled in the art would not expect the caprolactam-derived solvents to be as effective as NMP and other commonly used solvents.

For `CN1CCCCCC1=O` [Solvent 1, N-methylcaprolactam], the reproductive toxin [1] is listed as “not considered to be either a reproductive toxin or a carcinogen” and the carcinogen [2] is listed as “not considered to be either a reproductive toxin or a carcinogen”.

With `CN1CCCCCC1=O` [Solvent 1] the “maximum weight percentage of tebuconazole dissolved in each solvent” value [3] was 50%, the “maximum weight percentage of bifenthrin dissolved in each solvent” value [4] was 40% and the “maximum weight percentage of saflufenacil dissolved in each solvent” value [5] was 40%.

For `CCN1CCCCCC1=O` [Solvent 2], the “maximum weight percentage of tebuconazole dissolved in each solvent” value [3] was 50%, the “maximum weight percentage of bifenthrin dissolved in each solvent” value [4] was 50% and the “maximum weight percentage of saflufenacil dissolved in each solvent” value [5] was 30%.

With `CCCCN1CCCCCC1=O` [Solvent 3] the “maximum weight percentage of tebuconazole dissolved in each solvent” value [3] was 40%, the “maximum weight percentage of bifenthrin dissolved in each solvent” value [4] was 40% and the “maximum weight percentage of saflufenacil dissolved in each solvent” value [5] was 20%.

In the case of `CN1CCCC1=O` [Solvent 4, N-methyl-2-pyrrolidone], the reproductive toxin [1] is listed as “has been found to be a reproductive toxin”.

With `CN1CCCC1=O` [Solvent 4] the “maximum weight percentage of tebuconazole dissolved in each solvent” value [3] was 50%, the “maximum weight percentage of bifenthrin dissolved in each solvent” value [4] was 50% and the “maximum weight percentage of saflufenacil dissolved in each solvent” value [5] was 50%.

For `CCCCN1CCCC1=O` [Solvent 5], the “maximum weight percentage of tebuconazole dissolved in each solvent” value [3] was 40%, the “maximum weight percentage of bifenthrin dissolved in each solvent” value [4] was 50% and the “maximum weight percentage of saflufenacil dissolved in each solvent” value [5] was 30%.

In the case of `CCCCCCCCCC(=O)N(C)C` [Solvent 6], the “maximum weight percentage of tebuconazole dissolved in each solvent” value [3] is reported as 30%, the “maximum weight percentage of bifenthrin dissolved in each solvent” value [4] is reported as 30% and the “maximum weight percentage of saflufenacil dissolved in each solvent” value [5] is reported as 30%.

With `COC(=O)CCCCC(=O)N(C)C` [Solvent 7, N,N-dimethyladipamide methyl ester] the “Hansen Solubility Parameters: Dispersion” value [6] was 17.2, the “Hansen Solubility Parameters: Hydrogen Bonding” value [6] was 9.3 and the “Hansen Solubility Parameters: Polarity” value [6] was 9.7.

In the case of `O=C1CCCCC1` [Solvent 9], the “maximum weight percentage of tebuconazole dissolved in each solvent” value [3] is reported as 40%, the “maximum weight percentage of bifenthrin dissolved in each solvent” value [4] is reported as 50% and the “maximum weight percentage of saflufenacil dissolved in each solvent” value [5] is reported as <20%.

With `N#CCCN1CCCCCC1=O` [Solvent 13] the “maximum weight percentage of tebuconazole dissolved in each solvent” value [3] was <20%, the “maximum weight percentage of bifenthrin dissolved in each solvent” value [4] was <20% and the “maximum weight percentage of saflufenacil dissolved in each solvent” value [5] was <20%.

In the case of `O=C1CCCCCN1` [caprolactam], the reproductive toxin [1] is listed as “has not been found to be, and is not expected to be, either a reproductive toxin or a carcinogen” and the carcinogen [2] is listed as “has not been found to be, and is not expected to be, either a reproductive toxin or a carcinogen”.

In the case of `CC1=CC(=O)CC(C)(C)C1` [isophorone], the carcinogen [2] is listed as “suspected carcinogen”.
